System: Genes belonging to other category
Assay: DNA chip mRNA expression in yeast, genes belonging to other category (Table 9)
Format: cell-based, Saccharomyces cerevisiae S288C
Procedure: Yeast (Saccharomyces cerevisiae S288C (α SUC2mal mel gap2 CUP1)) were incubated at 25° C. on YPD medium (yeast extract 1%, polypepton 2%, glucose 2%). One of toxic chemical substances was added to the cells at logarithmic growth phase, and the cells were further incubated for two hours. Cells were cultured without any chemical substance in the same condition, and were used as control. Concentrations of the chemical substances were defined to inhibit the growth of the yeast but not lead to death.
After completion of the incubation, the culture was centrifuged to collect the cells. To the cells, sodium acetate buffer (50 mM sodium acetate, 10 mM EDTA, 1% SDS) was added, and the mixture was shaken at 65° C. for five minutes, followed by returning to room temperature, and obtaining the supernatant, of which the procedures were repeated two times. To the supernatant, ½ amount of a solution of phenol/chloroform was added, and the mixture was centrifuged to give a supernatant, which was added with an equal amount of chloroform, and the mixture was centrifuged to give a supernatant. To the supernatant, an equal amount of isopropanol containing 0.3 M sodium acetate was added, and the mixture was allowed to stand at room temperature for 30 minutes, after which the mixture was centrifuged to give a sediment of the whole RNAs. Seventy % ethanol was added to the sediment, and the mixture was again centrifuged to give a sediment, which was then dried and dissolved in water. mRNA was isolated from the whole RNAs as followings. In view of the fact that a poly A chain is attached to the 3′ terminus of mRNA, a polynucleotide having a poly T structure which was immobilized on the surface of latex beads was used to trap the mRNA, and then the mRNA was washed and eluted with spine column (Oligotex-dT30<Super>mRNA Purification Kit, Takara). Reverse transcription of the mRNA was conducted with a reverse transcriptase (Super Script II Reverse Transcriptase; catalogue No. 18064-014, GibcoBRL) using fluorescence-labeled nucleotides to give cDNAs that were introduced with Cy3-dUTP or Cy5-dUTP during the reverse transcription.
The labeled cDNAs were dissolved in TE buffer (10mM Tris-HCl/1 mM EDTA, pH8.0), and the solution was dropped on the DNA chip containing the whole genes of yeast (DNA Chip Research Inc. Japan) so that the cDNAs were hybridized on the DNA chip at 65° C. for over 12 hours. The fluoresces intensity of the DNA chip was read with a scanner, and the ratio relative to the fluorescence intensity resulting from the absence of chemical substance was estimated as the following, which is shown in Tables 1 to 9: […]

## [Cl][Cd][Cl] [(2), CdCl2]
Yeast gene YKL008C
  The level of expressed mRNA in the presence of chemical substance/The level of expressed mRNA in the absence of chemical substance: 0.6
Yeast gene YKL013C
  The level of expressed mRNA in the presence of chemical substance/The level of expressed mRNA in the absence of chemical substance: 0.9
Yeast gene YKL039W
  The level of expressed mRNA in the presence of chemical substance/The level of expressed mRNA in the absence of chemical substance: 1.1
Yeast gene YKL096W
  The level of expressed mRNA in the presence of chemical substance/The level of expressed mRNA in the absence of chemical substance: 0.6
Yeast gene YKL165C
  The level of expressed mRNA in the presence of chemical substance/The level of expressed mRNA in the absence of chemical substance: 2.0
Yeast gene YKL193C
  The level of expressed mRNA in the presence of chemical substance/The level of expressed mRNA in the absence of chemical substance: 0.8
Yeast gene YLR120C
  The level of expressed mRNA in the presence of chemical substance/The level of expressed mRNA in the absence of chemical substance: 1.9
Yeast gene YLR136C
  The level of expressed mRNA in the presence of chemical substance/The level of expressed mRNA in the absence of chemical substance: 9.0
Yeast gene YLR178C
  The level of expressed mRNA in the presence of chemical substance/The level of expressed mRNA in the absence of chemical substance: 6.9
Yeast gene YLR250W
  The level of expressed mRNA in the presence of chemical substance/The level of expressed mRNA in the absence of chemical substance: 1.0
Yeast gene YLR327C
  The level of expressed mRNA in the presence of chemical substance/The level of expressed mRNA in the absence of chemical substance: 3.3
Yeast gene YLR356W
  The level of expressed mRNA in the presence of chemical substance/The level of expressed mRNA in the absence of chemical substance: 2.9
Yeast gene YLR362W
  The level of expressed mRNA in the presence of chemical substance/The level of expressed mRNA in the absence of chemical substance: 1.2
Yeast gene YLR391W
  The level of expressed mRNA in the presence of chemical substance/The level of expressed mRNA in the absence of chemical substance: 0.7
Yeast gene YLR429W
  The level of expressed mRNA in the presence of chemical substance/The level of expressed mRNA in the absence of chemical substance: 1.0
Yeast gene YMR004W
  The level of expressed mRNA in the presence of chemical substance/The level of expressed mRNA in the absence of chemical substance: 0.9
Yeast gene YMR094W
  The level of expressed mRNA in the presence of chemical substance/The level of expressed mRNA in the absence of chemical substance: 0.5
Yeast gene YMR104C
  The level of expressed mRNA in the presence of chemical substance/The level of expressed mRNA in the absence of chemical substance: 14.3
Yeast gene YMR219W
  The level of expressed mRNA in the presence of chemical substance/The level of expressed mRNA in the absence of chemical substance: 1.1
Yeast gene YMR226C
  The level of expressed mRNA in the presence of chemical substance/The level of expressed mRNA in the absence of chemical substance: 1.8
Yeast gene YMR275C
  The level of expressed mRNA in the presence of chemical substance/The level of expressed mRNA in the absence of chemical substance: 0.7
Yeast gene YMR276W
  The level of expressed mRNA in the presence of chemical substance/The level of expressed mRNA in the absence of chemical substance: 1.4
Yeast gene YMR314W
  The level of expressed mRNA in the presence of chemical substance/The level of expressed mRNA in the absence of chemical substance: 1.2
Yeast gene YNL006W
  The level of expressed mRNA in the presence of chemical substance/The level of expressed mRNA in the absence of chemical substance: 2.1
Yeast gene YNL007C
  The level of expressed mRNA in the presence of chemical substance/The level of expressed mRNA in the absence of chemical substance: 2.4
Yeast gene YNL093W
  The level of expressed mRNA in the presence of chemical substance/The level of expressed mRNA in the absence of chemical substance: 6.4
Yeast gene YNL333W
  The level of expressed mRNA in the presence of chemical substance/The level of expressed mRNA in the absence of chemical substance: 1.4
Yeast gene YNR010W
  The level of expressed mRNA in the presence of chemical substance/The level of expressed mRNA in the absence of chemical substance: 1.2
Yeast gene YNR069C
  The level of expressed mRNA in the presence of chemical substance/The level of expressed mRNA in the absence of chemical substance: 1.3
Yeast gene YOL013C
  The level of expressed mRNA in the presence of chemical substance/The level of expressed mRNA in the absence of chemical substance: 1.0
Yeast gene YOL164W
  The level of expressed mRNA in the presence of chemical substance/The level of expressed mRNA in the absence of chemical substance: 4.4
Yeast gene YOR036W
  The level of expressed mRNA in the presence of chemical substance/The level of expressed mRNA in the absence of chemical substance: 0.9
Yeast gene YOR117W
  The level of expressed mRNA in the presence of chemical substance/The level of expressed mRNA in the absence of chemical substance: 1.3
Yeast gene YOR124C
  The level of expressed mRNA in the presence of chemical substance/The level of expressed mRNA in the absence of chemical substance: 1.1
Yeast gene YOR132W
  The level of expressed mRNA in the presence of chemical substance/The level of expressed mRNA in the absence of chemical substance: 1.6
Yeast gene YOR157C
  The level of expressed mRNA in the presence of chemical substance/The level of expressed mRNA in the absence of chemical substance: 1.3
Yeast gene YOR181W
  The level of expressed mRNA in the presence of chemical substance/The level of expressed mRNA in the absence of chemical substance: 0.9
Yeast gene YOR185C
  The level of expressed mRNA in the presence of chemical substance/The level of expressed mRNA in the absence of chemical substance: 1.3
Yeast gene YOR198C
  The level of expressed mRNA in the presence of chemical substance/The level of expressed mRNA in the absence of chemical substance: 0.7
Yeast gene YOR259C
  The level of expressed mRNA in the presence of chemical substance/The level of expressed mRNA in the absence of chemical substance: 1.1
Yeast gene YOR261C
  The level of expressed mRNA in the presence of chemical substance/The level of expressed mRNA in the absence of chemical substance: 1.4
Yeast gene YOR288C
  The level of expressed mRNA in the presence of chemical substance/The level of expressed mRNA in the absence of chemical substance: 1.3
Yeast gene YOR355W
  The level of expressed mRNA in the presence of chemical substance/The level of expressed mRNA in the absence of chemical substance: 0.6
Yeast gene YOR383C
  The level of expressed mRNA in the presence of chemical substance/The level of expressed mRNA in the absence of chemical substance: 4.3
Yeast gene YPL089C
  The level of expressed mRNA in the presence of chemical substance/The level of expressed mRNA in the absence of chemical substance: 1.0
Yeast gene YPL109C
  The level of expressed mRNA in the presence of chemical substance/The level of expressed mRNA in the absence of chemical substance: 2.5
Yeast gene YPL149W
  The level of expressed mRNA in the presence of chemical substance/The level of expressed mRNA in the absence of chemical substance: 1.5
Yeast gene YPL154C
  The level of expressed mRNA in the presence of chemical substance/The level of expressed mRNA in the absence of chemical substance: 3.3
Yeast gene YPR103W
  The level of expressed mRNA in the presence of chemical substance/The level of expressed mRNA in the absence of chemical substance: 1.1
Yeast gene YPR108W
  The level of expressed mRNA in the presence of chemical substance/The level of expressed mRNA in the absence of chemical substance: 1.0

Reference: patent US8192962B2, “Processes for detecting toxic substances” (Daikin Industries, Ltd., priority 2001, dated 2012)
